The test concerns JHH-NF1-GBM1 glioma viability, PrestoBlue fluorescence, 120 h. Kind of test: viability reduction in NF1-associated ATRX-deficient glioma cells, dose response, cell-based, JHH-NF1-GBM1, PrestoBlue (AID 2060364).

The structures appear in SMILES notation.

With `O=[N+]([O-])c1c(NCCO)cc(Sc2nc3ccccc3s2)c2nonc12`, the IC50 is 4.84 µM.
